Source: PMC4269415, “Replication Attempt: “Effect of BMAP-28 Antimicrobial Peptides on Leishmania Major Promastigote and Amastigote Growth: Role of Leishmanolysin in Parasite Survival”” (PLoS ONE, 2014)
Where “and” joins values, the source holds several entries; their conditions need not be identical. Equal values may be shown once. Read-outs that look alike come from different tables or passages of the source. Square brackets hold non-standard residues; d marks the D form. Ends that are not written are not given here. Peptide text beside a SMILES is read from it.

How the values were obtained:
[1] = tested on: Leishmania major promastigotes; experiment: Promastigote viability assay of the original study (Fig. 1A of Lynn et al.); assay type: cell-based; settings: from data of ref Lynn et al. [5]
[2] = tested on: Leishmania major promastigotes (strain MHOM/SN/74/SD); assay type: cell-based; settings: for % Viability (mean), replication: % of untreated control, calculated from the dose response curve; for % Viability (mean), combined original and replication: meta-analysis combining original and replication studies; for d Effect Size (Cohen's d), combined: original and replication combined
Method: The promastigote viability assays were conducted by the Anti-Infectives Screening Core Facility at New York University School of Medicine (https://www.scienceexchange.com/facilities/anti-infectives-screening-and-insectary-core-facilities-nyu). All assays were performed by investigators blinded to the reagents under study. 500 µM stocks of peptides were made by resuspending 4 mg of each peptide (M.W. 3131.92) in 2.554 mL of distilled sterile water. Each peptide was tested in triplicate three independent times at 50 µM, 25 µM, 12.5 µM, 6.25 µM, 3.125 µM, 1.5625 µM, 0.78125 µM, and 0.390625 µM. L. major strain MHOM/SN/74/SD (ATCC, PRA-384) was used in these studies. These cells were routinely cultured at 26°C in M-199 medium (Gibco, Grand Island, NY), supplemented with 10% heat inactivated fetal calf serum (Hyclone, Logan) and Pen/Strep (Gibco, Grand Island, NY). Mid-log phase promastigotes at concentrations of 5×10^6 per well were seeded in 96-well tissue culture plates. Heat-killed parasites, prepared by incubation at 99°C for 30 minutes, served as positive controls for the viability assays. Peptides were incubated with the cells for 4 hours at 26°C. A 20 µL volume of PrestoBlue (Life Technologies, Carlsbad, CA) was added to each well and incubated at 37°C for 3 hours. Fluorescence at excitation 530 nm and 590 nm emission wavelengths was measured using a plate reader (VICTOR, Perkin Elmer, US). Background fluorescence from media alone controls was subtracted from each reading and promastigote viability was expressed as a percentage of the untreated control.
An independent-samples t-test was conducted to compare promastigote viability in peptide treated and untreated conditions. A Fisher combined probability test was used to combine the original and replication studies values into a single combined study value for each peptide and peptide concentration. To provide a standardized measure of the effect we used cohen's d.

[3] = tested on: Leishmania major promastigotes; settings: 4 h, % of untreated control, determined from bar graph Fig. 1A, ref Lynn et al. [5], cited from earlier work
Method: Table 1 Promastigote viability assay of Leishmania major when treated with 0.5 µM or 2 µM BMAP-28 variants. | column: % Viability (mean) || This study describes an attempt to replicate experiments from the paper “Effect of BMAP-28 Antimicrobial Peptides on Leishmania major Promastigote and Amastigote Growth: Role of Leishmanolysin in Parasite Survival,” which was submitted to the Reproducibility Initiative for independent validation. The cathelicidin bovine myeloid antimicrobial peptide 28 (BMAP-28) and its isomers were previously shown to have potent antiparasitic activity against Leishmania major.

[4] = tested on: mammalian epithelial cells and monocytes; settings: cited from earlier work
[5] = 0.5 µM peptide, 4 h, three biological replicates
[6] = 2 µM peptide, 4 h, three biological replicates

Row | Molecule | d Effect Size (Cohen's d), original study ([1]; 0.5 µM peptide vs untreated) | d Effect Size (Cohen's d), original study ([1]; 2 µM peptide vs untreated) | % Viability (mean), replication [2, 5] [%] | % Viability (mean), combined original and replication ([2]; 0.5 µM peptide) | d Effect Size (Cohen's d), combined ([2]; 2 µM peptide vs untreated) | % Viability (mean), replication [2, 6] [%] | IC50 ([2]; 4 h) [µM] | IC90 ([2]; 4 h) [µM] | % Viability (mean), original study ([3]; 0.5 µM peptide) [%] | % Viability (mean), original study ([3]; 2 µM peptide) | toxicity to mammalian epithelial cells and monocytes (in words) [4] | d Effect Size (Cohen's d), replication ([2]; 0.5 µM peptide vs untreated) | d Effect Size (Cohen's d), combined ([2]; 0.5 µM peptide vs untreated) | d Effect Size (Cohen's d), replication ([2]; 2 µM peptide vs untreated) | % Viability (mean), combined original and replication ([2]; 2 µM peptide) [%] | IC50 ([2]; 4 h at 26°C, PrestoBlue fluorescence, dose-response 0.39-50 µM, three biological replicates in triplicate, read-out: IC50, promastigote viability) [µM] | IC90 ([2]; 4 h at 26°C, PrestoBlue fluorescence, dose-response 0.39-50 µM, three biological replicates, read-out: IC90, promastigote viability) [µM]
1 | CC[C@@H](C)[C@@H](NC(=O)[C@H]1CCCN1C(=O)CNC(=O)[C@@H](Cc1ccc(O)cc1)NC(=O)[C@@H](CCCCN)NC(=O)[C@@H](CCCCN)NC(=O)[C@@H](Cc1c[nH]c2ccccc12)NC(=O)[C@@H](C)NC(=O)[C@@H](CCCNC(=N)N)NC(=O)[C@@H](CC(C)C)NC(=O)[C@H](NC(=O)[C@@H](CCCCN)NC(=O)[C@@H](CCCNC(=N)N)NC(=O)CNC(=O)[C@@H](CC(C)C)NC(=O)[C@@H](CO)NC(=O)[C@@H](CCCNC(=N)N)NC(=O)[C@@H](CC(C)C)NC(=O)CNC(=O)CN)[C@H](C)CC)C(=O)N[C@@H](C(=O)N[C@@H](C(=O)N1CCC[C@@H]1C(=O)N[C@@H](C(=O)N[C@@H](C(=O)N[C@H](CCCNC(=N)N)C(=O)N[C@@H](C(=O)NCC(=O)O)[C@H](C)CC)[C@H](C)CC)[C@H](C)CC)C(C)C)[C@H](C)CC [D-BMAP-28] (H-GG[dL][dR][dS][dL]G[dR][dK][dI][dL][dR][dA][dW][dK][dK][dY]G[dP][dI][dI][dV][dP][dI][dI][dR][dI]G-OH; N-terminus assumed) | 2.55 | 37.8 | 92.40 | not significantly modified | 16.67 | 73.26 | 3.55 | 9.85 | 68.75 | 6% and 5.50% |  |  |  |  |  |  | 
2 | CC[C@@H](C)[C@@H](NC(=O)CN)C(=O)N[C@H](CCCNC(=N)N)C(=O)N[C@@H](C(=O)N[C@@H](C(=O)N1CCC[C@@H]1C(=O)N[C@@H](C(=O)N[C@@H](C(=O)N[C@@H](C(=O)N1CCC[C@@H]1C(=O)NCC(=O)N[C@H](Cc1ccc(O)cc1)C(=O)N[C@H](CCCCN)C(=O)N[C@H](CCCCN)C(=O)N[C@H](Cc1c[nH]c2ccccc12)C(=O)N[C@H](C)C(=O)N[C@H](CCCNC(=N)N)C(=O)N[C@H](CC(C)C)C(=O)N[C@@H](C(=O)N[C@H](CCCCN)C(=O)N[C@H](CCCNC(=N)N)C(=O)NCC(=O)N[C@H](CC(C)C)C(=O)N[C@H](CO)C(=O)N[C@H](CCCNC(=N)N)C(=O)N[C@H](CC(C)C)C(=O)NCC(=O)NCC(=O)O)[C@H](C)CC)[C@H](C)CC)[C@H](C)CC)C(C)C)[C@H](C)CC)[C@H](C)CC [RI-BMAP-28] (H-G[dI][dR][dI][dI][dP][dV][dI][dI][dP]G[dY][dK][dK][dW][dA][dR][dL][dI][dK][dR]G[dL][dS][dR][dL]GG-OH; N-terminus assumed) | −1.20 | 6.88 | 94.64 | not significantly modified | 6.31 | 76.64 | 4.55 | 20 | 103.00 | 18% and 17.50% | limited toxicity |  |  |  |  |  | 
3 | GGLRSLGRKILRAWKKYGPIIVPIIRI-NH2 [L-BMAP-28-NH2, amidated L-BMAP-28 peptide] |  |  | 95.55 | 99.40% | 2.65 | 94.15 |  |  |  |  |  | 0.62 | 0.11 | 0.81 | 75.45 | 5.83 | 10.2
4 | GGLRSLGRKILRAWKKYGPIIVPIIRIG [L-BMAP-28] |  |  |  |  |  |  | 17.1 | 25.2 |  |  |  |  |  |  |  |  | 
